For data set [1], the system named is Arabidopsis thaliana seedlings. As to the kind of experiment: Primary root elongation of Arabidopsis thaliana seedlings (IC50-root). It is filed as in vivo. The note with it: continuous exposure, unpublished data.
Data set [2] deals with OsWRKY45. As to the kind of experiment: qRT-PCR in rice roots, OsWRKY45 (Example 19). It is filed as in vivo, Oryza sativa. The note with it: rice cv. Bomba root tissue; 100 μM; harvested 13 days after germination; N=3 pools. Here is the method:
(§1) After quality control, qPCR was carried out.
For orientation: Real-time PCR tracks product formation cycle by cycle.

Data set [3] has as its system Fusarium proliferatum (isolate Fpr18). As to the kind of experiment: Onion seedling emergence with PA seed coating, Fusarium proliferatum (Example 12). It is filed as in vivo. The conditions noted are these: onion seeds with 300 μM PA coating vs mock coating. Here is the method: (§2) Seed coatings were applied by dipping seeds in a coating solution containing 20 g/I high viscosity carboxymethylcellulose (Sigma-Aldrich, Saint Louis, USA) in distilled water as well as 300 μM of the target compound. Seeds were then dried overnight at room temperature.
(§3) Onion seeds were coated with a 300 μM PA solution as outlined in the chemical treatments section. F. oxysporum (isolate Foc26), F. solani (isolate Fso18) and F. proliferatum (isolate Fpr18) were originally extracted from Vietnamese onion fields. Inoculum was obtained as described in the fungal culture section. The inoculum was diluted to a concentration of 1.0×10^7 spores per ml with sterile PBS buffer. The coated seeds were then soaked in the spore solution for one hour. To avoid excessive PA leaching from the PA coating, 100 μM of PA was added to the spore solution.
(§4) After soaking in the PA solution, seeds were left to dry for thirty minutes. Twenty seeds were then sowed per pot in potting soil; three pots were used per treatment and per fungal isolate (for a total of 60 seeds per treatment-isolate combination). The pots were covered in cling film and left on a window sill at room temperature. After eight and ten days, the number of germinated seedlings per pot was counted.
(§5) Germination experiments were analyzed by fitting a three-parameter log-logistic model as implemented in the R drc package.

Data set [4] has as its system Meloidogyne graminicola. As to the kind of experiment: M. graminicola infection in wild type and OsWRKY45 knockdown rice (Example 16). It is filed as in vivo. The conditions noted are these: for Likelihood of necrosis / Fraction of empty galls / Fraction of small galls / Gall number / Galls per AR: MDCA/PA spray; for Fraction of empty galls / Fraction of small galls / Gall number / Galls per AR: median (interquartile range); for change of number of galls per root system, WRKY45 treated vs WRKY45 control: WRKY45-RNAi rice; for change of number of galls per root system, WT treated vs WT+CON: wild type rice. Here is the method: Infection experiments with M. graminicola were performed by inoculating host plants 14 days after transfer to SAP by introducing the desired amount of J2 juveniles next to the root system using a micro pipette. Rice plants (cv. Nipponbare or Kitaake) were inoculated with 250 J2 juveniles per plant; wheat plants (cv. Sahara) were inoculated with 600 J2 juveniles per plant. Plants were harvested 14 days after inoculation. At this point, the plants were phenotyped by measuring the shoot and root length with a ruler, counting the number of adventitious roots and in some experiments by measuring leaf area using the EasyLeafArea software (Easlon and Bloom, 2014) and by determining shoot dry mass after 72 hours of drying in an oven at 70° C. Root systems were then stained in acid fuchsine as described in (Byrd et al., 1983) and left to destain in glycerol with 1 ml/l fuming HCl added for approximately ten days. The number of galls and nematodes was then counted using a binocular microscope.
To test the potential involvement of salicylic acid (SA) in MDCA/PA defense enhancement the response of MDCA/PA-treated RNAi-knockdown mutants in OsWRKY45 to nematode infection was examined. The OsWRKY proteins form a family of rice transcription factors that regulate a broad range of cellular processes, most of which are related to abiotic and biotic stress response (Jimmy and Babu, 2015). In keeping with their important role in defense, many OsWRKY genes are controlled by the plant defense hormones jasmonic acid and SA (Ryu et al., 2006; Jimmy and Babu, 2015).
OsWRKY45 is a master regulator of SA-induced defense responses. Knockdown lines in this gene are useful for testing whether MDCA/PA defense enhancement depends on SA signaling, as OsWRKY45 (unlike most other defense genes) is believed to be triggered only by SA (Ryu et al. 2006; incorporated by reference).
Galls were counted and classified by their size and by whether they were empty or not. The presence or absence of necrosis in the root system was also recorded.

Data set [5] has as its system OsC4H. Briefly: qRT-PCR in rice roots, OsC4H (Example 19). The note with it: rice cv. Bomba root tissue; 100 μM; harvested 13 days after germination; N=3 pools.
Data set [6] relates to OsICS1. Briefly: qRT-PCR in rice roots, OsICS1 (Example 19). The conditions noted are these: rice cv. Bomba root tissue; 100 μM; harvested 13 days after germination; N=3 pools. The format is in vivo, Oryza sativa. Here is the method:
as §1

The test system of data set [7] is Fusarium oxysporum (isolate Foc26). Briefly: Onion seedling emergence with PA seed coating, Fusarium oxysporum (Example 12). It is filed as in vivo. The conditions noted are these: onion seeds with 300 μM PA coating vs mock coating. As for the experimental part: as §2, §3, §4, §5
Data set [8] relates to OsPAL2. Briefly: qRT-PCR in rice roots, OsPAL2 (Example 19). The format is in vivo, Oryza sativa. The note with it: rice cv. Bomba root tissue; 100 μM; harvested 13 days after germination; N=3 pools. As for the experimental part:
as §1

The test system of data set [9] is wheat. As to the kind of experiment: Phytotoxicity of foliar spray in uninfected wheat (Example 1). The note with it: 500 μM foliar spray, 8 plants per treatment. It is filed as in vivo, Triticum aestivum. As for the experimental part: For Examples 1, 5 and 10, seeds of the winter wheat cultivar Sahara (Aveve Agrarisch, Landen, Belgium) were used. Seeds were washed in a 10% ethanol solution to remove any residual traces of fungicide and then germinated on wet paper at room temperature for four days; seeds were transferred to SAP tubes and placed in a growth chamber (25° C., 16 hours per day of light). Plants were watered with 8 ml of half-strength Hoagland solution every two days for the first ten days and with 8 ml of full strength Hoagland solution every two days afterwards.
Unless otherwise mentioned, all chemicals for nematode experiments were applied as a foliar spray consisting of the target compound at a concentration of 300 μM together with 0.1% (v/v) Tween 20 surfactant (Calbiochem) in distilled water. Again unless otherwise mentioned, all treatments for the nematode experiments were carried out three times: one and eight days before pathogen inoculation and seven days after pathogen inoculation. In all cases, plants were sprayed until run-off with an atomizer.
Short-term phytotoxicity experiments (Example 1) were analyzed using non-parametric methods. For each variable, overall significance was determined using the Kruskal-Wallis test (Kruskal and Wallis, 1952), followed by a posthoc Conover-Iman test (Conover and Iman, 1981) with Hommel multiplicity correction (Hommel, 1988) if the Kruskal-Wallis test was significant. When only two groups were present, the Wilcoxon-Mann-Whitney test was used (Mann and Whitney, 1947).
To test whether C4H inhibitors induce phytotoxic effects in crops, uninfected tomato, wheat and carrot were treated with piperonylic acid (PA), 4-iodobenzoic acid (4-IBA) and piperic acid (PIA) at a concentration of 500 μM through foliar application. At harvest, leaf area (or shoot length in the case of wheat) and primary root length were recorded. The BBCH developmental stage (Lancashire et al., 1991), a measure of developmental retardation, was used to test for effects on development. Finally, the presence of visible signs of phytotoxicity such as chlorosis, discoloration or necrosis was recorded.

pIC50: −log10 of the molar value.

Broadly, the pIC50 is the IC50 on a negative log10 scale, so that one unit is a factor of ten. The low end stands for a large IC50, the high end for a small IC50. Compound `O=C(O)c1ccc2c(c1)OCO2` [PA, Piperonylic acid] gave a pIC50 in data set [1] of 4.40. In [2], the “Fold change vs. control, OsWRKY45 expression” value is given as 1.30. In addition, in [3], the “improvement of seedling emergence” value is given as “+79%”. In addition, in data set [4] (WRKY45-RNAi knockdown rice), the Likelihood of necrosis turned out to be 0.60 ± 0.52, the “Fraction of empty galls” value is recorded as 0.02 (0.03), the “Fraction of small galls” value is 0.91 (0.05) and the Gall number was 39.0 (20.3). Moreover, the “Galls per AR” value in [4] (WRKY45-RNAi knockdown rice) was 2.2 (0.8). Besides, in [4], the “change of number of galls per root system, WRKY45 treated vs WRKY45 control” value is reported as −41% and the “change of number of galls per root system, WT treated vs WT+CON” value is listed as −42%. Also, in [4] (Wild type rice), the Likelihood of necrosis came out at 0.78 ± 0.44, the “Fraction of empty galls” value is given as 0.03 (0.03), the “Fraction of small galls” value is 0.93 (0.06) and the Gall number is given as 33.0 (10.0). The “Galls per AR” value in data set [4] (Wild type rice) is 1.8 (0.5). Also, the “Fold change vs. control, OsC4H expression” value in data set [5] stood at 9.87. Also, the “Fold change vs. control, OsICS1 expression” value in data set [6] came to 1.36. Moreover, the “improvement of seedling emergence” value in data set [7] is “+42%”. Also, the “Fold change vs. control, OsPAL2 expression” value in data set [8] came out at 1.29. In [9] (mean ± standard deviation), this compound came in with a Root length of 15.75 ± 2.64 cm and a Shoot length of 31.75 ± 2.84 cm. The BBCH stage in data set [9] (median ± interquartile range) is reported as 13 ± 0.

As to `O=C(O)/C=C/c1ccc2c(c1)OCO2` [MDCA, 3,4-methylenedioxycinnamic acid], the “Fold change vs. control, OsWRKY45 expression” value in [2] is reported as 1.67. Further, in data set [4] (WRKY45-RNAi knockdown rice), the Likelihood of necrosis turned out to be 0.50 ± 0.53, the “Fraction of empty galls” value is recorded as 0.09 (0.01), the “Fraction of small galls” value is recorded as 0.94 (0.03) and the Gall number was 52.0 (10.8). In data set [4] (WRKY45-RNAi knockdown rice), the “Galls per AR” value is reported as 3.3 (0.7). In addition, in data set [4], the “change of number of galls per root system, WRKY45 treated vs WRKY45 control” value is on record as −23% and the “change of number of galls per root system, WT treated vs WT+CON” value was −42%. In addition, in data set [4] (Wild type rice), the Likelihood of necrosis came out at 0.63 ± 0.52, the “Fraction of empty galls” value is 0.02 (0.04), the “Fraction of small galls” value is given as 0.86 (0.07) and the Gall number is given as 36.5 (10.3). The “Galls per AR” value in data set [4] (Wild type rice) is reported as 2.3 (0.6). In addition, the “Fold change vs. control, OsC4H expression” value in [5] is 3.73. Further, in [6], the “Fold change vs. control, OsICS1 expression” value was 1.73. Further, in data set [8], the “Fold change vs. control, OsPAL2 expression” value was determined as 1.86.
